Source: US20230119239A1, “OROMUCOSAL FILM COMPOSITIONS” (ReForm Therapeutics Ltd., priority 2021, published 2023)

Assay: Ex vivo permeation of liraglutide solution through porcine sublingual mucosa, Franz diffusion cell
Type: in vitro ADME
Conditions: liraglutide 3 mg/mL + Transcutol® HP (10% solution) compared with liraglutide solution alone; 120 minutes; receptor phosphate buffer pH 8.5; FIG. 4
Procedure: The solution of liraglutide, and solution of liraglutide and permeation enhancer was tested. […] Samples were taken at 0 and 120 minutes to determinate the presence of liraglutide in the receptor chamber. The concentration level of liraglutide was determined using HPLC/MS method.

Structure (SMILES): CCCCCCCCCCCCCCCC(=O)N[C@@H](CCC(=O)NCCCC[C@H](NC(=O)[C@H](C)NC(=O)[C@H](C)NC(=O)[C@H](CCC(N)=O)NC(=O)CNC(=O)[C@H](CCC(=O)O)NC(=O)[C@H](CC(C)C)NC(=O)[C@H](Cc1ccc(O)cc1)NC(=O)[C@H](CO)NC(=O)[C@H](CO)NC(=O)[C@@H](NC(=O)[C@H](CC(=O)O)NC(=O)[C@H](CO)NC(=O)[C@@H](NC(=O)[C@H](Cc1ccccc1)NC(=O)[C@@H](NC(=O)CNC(=O)[C@H](CCC(=O)O)NC(=O)[C@H](C)NC(=O)[C@@H](N)Cc1cnc[nH]1)[C@@H](C)O)[C@@H](C)O)C(C)C)C(=O)N[C@@H](CCC(=O)O)C(=O)N[C@@H](Cc1ccccc1)C(=O)N[C@H](C(=O)N[C@@H](C)C(=O)N[C@@H](Cc1c[nH]c2ccccc12)C(=O)N[C@@H](CC(C)C)C(=O)N[C@H](C(=O)N[C@@H](CCCNC(=N)N)C(=O)NCC(=O)N[C@@H](CCCNC(=N)N)C(=O)NCC(=O)O)C(C)C)[C@@H](C)CC)C(=O)O [liraglutide]
- permeation of liraglutide through sublingual mucosa ex vivo (in words): significantly increased permeation
